Residue numbers refer to the chain shown, from its start. Several values for one entry are separate records, joined by “and”; a condition that tells them apart may be missing. Identical values can stand only once.
How the values were obtained:
eIF2Bα [1] = target: T1, eIF2Bα (Homo sapiens, UniProt Q14232); assay: Differential scanning fluorimetry (Protein Thermal Shift), eIF2Bα Tm; assay type: binding; details: individual replicates Rep 1-4, control without metabolite about 64.1
T1 construct: made in house; host or cells: E. coli BL21(DE3)
T1 sequence (Q14232 1-305): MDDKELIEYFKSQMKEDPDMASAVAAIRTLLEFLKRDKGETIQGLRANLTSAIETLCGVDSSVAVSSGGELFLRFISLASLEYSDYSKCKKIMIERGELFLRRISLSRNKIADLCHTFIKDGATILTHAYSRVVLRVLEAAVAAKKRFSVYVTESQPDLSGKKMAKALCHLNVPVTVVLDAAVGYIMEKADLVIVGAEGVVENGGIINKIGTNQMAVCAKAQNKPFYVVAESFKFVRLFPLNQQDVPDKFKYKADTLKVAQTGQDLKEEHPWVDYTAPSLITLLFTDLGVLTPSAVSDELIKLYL
Experimental: The effect of metabolite binding on eIF2Bα Tm was assessed using the Protein Thermal Shift assay (Thermo Fisher), following manufacturer’s instructions. Briefly, reaction conditions for each 20 μL reaction were: 1.1 μg (1.5 μM) of eIF2Bα, 5 μl Thermal Shift buffer, 1X Thermal Shift dye, and metabolites in dose response. Reactions were run in 384-well format on a QuantStudio 6 Flex instrument (Thermo Fisher). The resulting melt curves were analyzed using Protein Thermal Shift Software, and eIF2Bα Tms for each condition were calculated by fitting to the Boltzmann function.

eIF2Bα [2] = target: T1, eIF2Bα; assay: Isothermal titration calorimetry, wild-type eIF2Bα; assay type: binding
Experimental: (§1) Interactions between recombinant protein and sugar phosphates were conducted with a MicroCal PEAQ-ITC (Malvern Panalytical Inc.). Experiments were performed in 25 mM HEPES, 150 mM NaCl, pH 7.5 at 20 °C. The sugar phosphate concentration in the syringe was 1 mM or 1.5 mM, and ~3.5 μL aliquots were injected into cells containing 300 μL eIF2Bα or eIF2B(βδγε) at a concentration of 20–30 μM. The final titration curves were fitted using MicroCal ITC data analysis software, assuming a single binding site per monomer.

eIF2Bα^N208Y = target: T2, eIF2Bα^N208Y (Homo sapiens, UniProt Q14232, N208Y); assay: Isothermal titration calorimetry, eIF2Bα N208Y; assay type: binding; details: ITC
T2 construct: made in house; host or cells: E. coli BL21(DE3)
T2 sequence (Q14232 1-305 N208Y): T1 sequence (Q14232 1-305) with N208Y
Experimental: as §1

eIF2Bα [3] = target: T1, eIF2Bα; assay: MIDAS (mass spectrometry integrated with equilibrium dialysis) metabolite binding screen
How it was run: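 Hits called at Storey q < 0.1 on z-scores of PCA-corrected log2 fold change between protein and metabolite chambers, quantified by FIA-MS in triplicate.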

eIF2B = target: T3, eIF2B (Homo sapiens, UniProt P49770+Q14232+Q9UI10); assay: eIF2B GEF activity assay, unbiased metabolite screen (Bodipy-FL-GDP release); assay type: biochemical; details: 10 μM metabolite
T3 construct: made in house; host or cells: eIF2Bα: E. coli BL21(DE3)
T3 sequence (P49770 whole entry, one chain of several): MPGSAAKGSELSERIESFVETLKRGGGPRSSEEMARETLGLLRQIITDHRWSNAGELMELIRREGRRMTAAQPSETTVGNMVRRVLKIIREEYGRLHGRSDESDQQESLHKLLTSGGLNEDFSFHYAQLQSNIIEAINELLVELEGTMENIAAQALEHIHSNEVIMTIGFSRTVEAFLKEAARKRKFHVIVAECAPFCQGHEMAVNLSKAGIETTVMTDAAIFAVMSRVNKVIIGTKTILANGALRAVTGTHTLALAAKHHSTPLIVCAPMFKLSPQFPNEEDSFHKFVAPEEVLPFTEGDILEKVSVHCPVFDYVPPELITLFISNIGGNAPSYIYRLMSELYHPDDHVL
T3 sequence (Q9UI10 whole entry, one chain of several): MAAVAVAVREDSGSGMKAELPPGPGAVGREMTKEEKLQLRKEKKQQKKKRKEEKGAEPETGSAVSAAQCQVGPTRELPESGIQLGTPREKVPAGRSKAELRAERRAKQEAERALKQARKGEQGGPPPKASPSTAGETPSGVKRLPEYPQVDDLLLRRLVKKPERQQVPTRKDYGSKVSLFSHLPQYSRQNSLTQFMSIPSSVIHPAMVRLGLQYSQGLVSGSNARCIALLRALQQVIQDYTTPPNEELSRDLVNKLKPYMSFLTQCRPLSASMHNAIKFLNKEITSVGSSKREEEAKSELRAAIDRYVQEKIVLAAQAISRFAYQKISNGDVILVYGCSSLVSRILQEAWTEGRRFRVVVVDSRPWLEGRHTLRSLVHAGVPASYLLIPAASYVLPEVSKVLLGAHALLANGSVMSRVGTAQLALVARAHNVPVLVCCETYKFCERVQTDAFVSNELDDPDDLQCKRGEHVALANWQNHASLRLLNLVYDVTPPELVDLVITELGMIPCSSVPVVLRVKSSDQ
T3 sequence (Q9NR50 whole entry partner, one chain of several): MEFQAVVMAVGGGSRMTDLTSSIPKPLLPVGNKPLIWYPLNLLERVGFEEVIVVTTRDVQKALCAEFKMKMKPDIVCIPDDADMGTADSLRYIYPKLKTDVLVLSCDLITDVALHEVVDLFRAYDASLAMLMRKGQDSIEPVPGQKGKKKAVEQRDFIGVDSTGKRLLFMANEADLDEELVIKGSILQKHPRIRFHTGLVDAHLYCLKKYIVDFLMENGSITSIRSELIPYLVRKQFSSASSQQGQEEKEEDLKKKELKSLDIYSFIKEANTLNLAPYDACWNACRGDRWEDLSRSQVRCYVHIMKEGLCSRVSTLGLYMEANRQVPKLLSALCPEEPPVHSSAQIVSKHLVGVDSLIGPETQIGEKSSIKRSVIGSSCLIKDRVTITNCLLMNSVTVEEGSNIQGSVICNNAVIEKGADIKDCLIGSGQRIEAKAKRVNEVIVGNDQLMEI
T3 sequence (Q13144 whole entry partner, one chain of several): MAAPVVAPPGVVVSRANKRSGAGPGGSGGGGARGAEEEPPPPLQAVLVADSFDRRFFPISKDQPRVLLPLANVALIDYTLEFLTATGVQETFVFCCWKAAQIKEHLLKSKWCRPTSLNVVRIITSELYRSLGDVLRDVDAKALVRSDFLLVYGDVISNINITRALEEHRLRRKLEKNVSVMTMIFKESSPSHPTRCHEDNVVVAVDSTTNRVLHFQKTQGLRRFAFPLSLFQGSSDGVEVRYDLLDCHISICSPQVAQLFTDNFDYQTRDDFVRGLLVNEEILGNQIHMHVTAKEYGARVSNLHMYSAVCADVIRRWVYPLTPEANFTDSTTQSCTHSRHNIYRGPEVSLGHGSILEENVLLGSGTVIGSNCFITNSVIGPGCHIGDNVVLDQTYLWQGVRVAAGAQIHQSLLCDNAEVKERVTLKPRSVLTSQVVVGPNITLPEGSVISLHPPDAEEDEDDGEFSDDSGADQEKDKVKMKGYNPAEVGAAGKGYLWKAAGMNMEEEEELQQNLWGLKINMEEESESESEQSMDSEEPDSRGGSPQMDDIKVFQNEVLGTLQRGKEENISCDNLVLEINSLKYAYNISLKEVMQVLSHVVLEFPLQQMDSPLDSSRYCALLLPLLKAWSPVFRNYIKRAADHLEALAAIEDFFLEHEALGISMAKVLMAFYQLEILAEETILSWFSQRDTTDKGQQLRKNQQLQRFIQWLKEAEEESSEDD
Experimental: Bodipy-FL-GDP-loaded eIF2 was used as a substrate for recombinant eIF2B. The assay was performed in 384-well plates. Reactions were read on a SpectraMax i3x plate reader (Molecular Devices) using the instrument’s Softmax Pro software with the following parameters: plate temperature = 25 °C; excitation wavelength = 485 nm (15 nm width); emission wavelength = 535 nm (25 nm width); read duration = 30 min at 45 s intervals. Data were analyzed in Prism. GDP release half-lives were calculated by fitting single-exponential decay curves.
For unbiased screening, MIDAS metabolite libraries at 10 mM stock concentration were dispensed into wells of the assay plate using an Echo Acoustic Liquid Handler (Labcyte). […] A single well was run for each metabolite. […] For targeted experiments with HEK293T lysates, the following conditions were used: 50 nM Bodipy-FL-GDP-loaded eIF2, 0.1 mM GDP, 1 mg/ml BSA, 0.1 or 0.3 mg/ml lysates.

`O=C[C@@H](O)[C@@H](O)[C@H](O)[C@H](O)COP(=O)(O)O` [M6P, mannose-6-phosphate] was tested, and the “Tm of eIF2Bα” value (eIF2Bα [1]; 0.33 mM metabolite) was 64.7587 °C and 64.5257 °C and 64.0751 °C and 63.7209 °C, the “Tm of eIF2Bα” value (eIF2Bα [1]; 1 mM metabolite) was 66.0911 °C and 65.9704 °C and 65.2776 °C and 64.2935 °C and the “Tm of eIF2Bα” value (eIF2Bα [1]; 5 mM metabolite) was 66.7846 °C and 66.6099 °C and 66.516 °C and 65.7833 °C. The Kd (eIF2Bα [2]; ITC, wild-type eIF2Bα) was 282 ± 35 µM, the “ITC binding isotherm, heat per mole of injectant” value (eIF2Bα [2]; molar ratio 0.225339) was -5.213 kJ/mol and the “ITC binding isotherm, heat per mole of injectant” value (eIF2Bα [2]; molar ratio 0.415168) was -4.52 kJ/mol. The “ITC binding isotherm, heat per mole of injectant” value (eIF2Bα [2]; molar ratio 0.606855) was -4.234 kJ/mol, the “ITC binding isotherm, heat per mole of injectant” value (eIF2Bα [2]; molar ratio 0.8004) was -3.871 kJ/mol and the “ITC binding isotherm, heat per mole of injectant” value (eIF2Bα [2]; molar ratio 0.995804) was -3.263 kJ/mol. For the same compound, the “ITC binding isotherm, heat per mole of injectant” value (eIF2Bα [2]; molar ratio 1.19307) was -3.23 kJ/mol, the “ITC binding isotherm, heat per mole of injectant” value (eIF2Bα [2]; molar ratio 1.39219) was -3.068 kJ/mol and the “ITC binding isotherm, heat per mole of injectant” value (eIF2Bα [2]; molar ratio 1.59317) was -2.69 kJ/mol. The “ITC binding isotherm, heat per mole of injectant” value (eIF2Bα [2]; molar ratio 1.796) was -2.462 kJ/mol, the “ITC binding isotherm, heat per mole of injectant” value (eIF2Bα [2]; molar ratio 2.0007) was -2.484 kJ/mol and the “ITC binding isotherm, heat per mole of injectant” value (eIF2Bα [2]; molar ratio 2.20725) was -2.552 kJ/mol. The “ITC binding isotherm, heat per mole of injectant” value (eIF2Bα [2]; molar ratio 2.41567) was -2.205 kJ/mol, the “ITC binding isotherm, heat per mole of injectant” value (eIF2Bα [2]; molar ratio 2.62594) was -2.136 kJ/mol and the “ITC binding isotherm, heat per mole of injectant” value (eIF2Bα [2]; molar ratio 2.83807) was -2.006 kJ/mol. The “ITC binding isotherm, heat per mole of injectant” value (eIF2Bα [2]; molar ratio 3.05206) was -1.78 kJ/mol, the “ITC binding isotherm, heat per mole of injectant” value (eIF2Bα [2]; molar ratio 3.2679) was -1.869 kJ/mol and the “ITC binding isotherm, heat per mole of injectant” value (eIF2Bα [2]; molar ratio 3.48561) was -1.866 kJ/mol. For the same compound, the “ITC binding isotherm, heat per mole of injectant” value (eIF2Bα [2]; molar ratio 3.70517) was -0.8171 kJ/mol and the “interaction with eIF2Bα N208Y” value (eIF2Bα^N208Y) was “does not interact”.
`O=C[C@H](O)[C@H](O)[C@H](O)COP(=O)(O)O` [Ribose-5-phosphate] was tested, and the “Tm of eIF2Bα” value (eIF2Bα [1]; 0.33 mM metabolite) was 63.6082 °C and 63.1309 °C and 63.9035 °C and 63.9145 °C, the “Tm of eIF2Bα” value (eIF2Bα [1]; 1 mM metabolite) was 65.8453 °C and 64.5885 °C and 66.0863 °C and 66.0043 °C and the “Tm of eIF2Bα” value (eIF2Bα [1]; 3.3 mM metabolite) was 65.9356 °C and 65.2316 °C and 66.3491 °C and 65.7067 °C. For the same compound, the “Tm of eIF2Bα” value (eIF2Bα [1]; 10 mM metabolite) was 67.199 °C and 66.1831 °C and 67.4737 °C and 67.2666 °C.
`O=c1ccn([C@@H]2O[C@H](COP(=O)(O)O)[C@@H](O)[C@H]2O)c(=O)[nH]1` [UMP, Uridine monophosphate] was tested, and the “log2(corrected fold change)” value (eIF2Bα [3]; MIDAS screen, sheet eIF2Ba, metabolites screened in pools 1-4, p-value and q-value given) was 1.855, the “MIDAS result (enrichment in the protein chamber / hit status)” value (eIF2Bα [3]; eIF2Bα2, 50 μM per metabolite pool, 40 h dialysis at 4 °C) was “a strong hit in MIDAS” and the “Tm of eIF2Bα” value (eIF2Bα [1]; 0.33 mM metabolite) was 64.124 °C and 63.8726 °C and 64.7063 °C and 64.4005 °C. The “Tm of eIF2Bα” value (eIF2Bα [1]; 1 mM metabolite) was 65.4937 °C and 64.6631 °C and 66.2688 °C and 66.0835 °C, the “Tm of eIF2Bα” value (eIF2Bα [1]; 5 mM metabolite) was 67.0947 °C and 66.2443 °C and 67.297 °C and 67.2174 °C and the “effect on eIF2B GEF activity in the screen” value (eIF2B) was “a hit in this functional assay screen”.
For Glucose-6-phosphate, the “Tm of eIF2Bα” value (eIF2Bα [1]; 0.33 mM metabolite) was 64.7198 °C and 64.0494 °C and 65.062 °C and 64.7755 °C, the “Tm of eIF2Bα” value (eIF2Bα [1]; 1 mM metabolite) was 65.3152 °C and 64.2994 °C and 65.8081 °C and 65.8236 °C and the “Tm of eIF2Bα” value (eIF2Bα [1]; 3.3 mM metabolite) was 65.2749 °C and 64.6195 °C and 65.7728 °C and 65.1105 °C. For the same compound, the “Tm of eIF2Bα” value (eIF2Bα [1]; 10 mM metabolite) was 66.5112 °C and 65.3473 °C and 66.6482 °C and 66.6125 °C.
